This test relates to trypsin. As to the kind of experiment: Tryptic digestion of peptide standards, released T6 peptide (LVNEVTEFAK) measured by LC-MSMS (MRM). The note with it: for IS Peak Area (counts): LVNEVTEFAK* signal, internal std + digested peptide 8; for Analyte Peak Area (counts): trypsin 37° C. 30 min. The test is classed as biochemical. The source says: The first experiment was test the hypothesis that the LVNEVTEFAKT (SEQ ID NO:7) peptide is cleaved to LVNEVTEFAK (SEQ ID NO:10) by trypsin as efficiently as the longer peptides. Using LVNEVTEFAK* (SEQ ID NO:10) as the internal standard peptides (1-5, and 8) were digested using standard protocol. […] This implies that any internal standard peptide where cysteine is the N-terminal amino acid will require the next amino acid in addition to be effective.
Experiment to Determine Number of Amino Acids Required Following Trypsin Digest Site for Digestion.
Assay 50 μl peptide 1-6 & 8 (blank was deionised water)+50 μl internal std Add 10 μl acetonitrile & 10 μl 1% formic acid, vortex mix, and stand for 5 min Add 6 μl […] ammonium bicarbonate & 5 μl trypsin (5 mg/l), vortex mix, and pulse centrifuge (6 sec) Incubate at 37° C. for 30 min & add 500 μl HPLC solvent (acetonitrile:water 1:1 with 0.025% formic acid) Vortex mix and transfer to 96-deep well polypropylene plate Sample volume, 5 μl; flow rate, 500 μl/min Chromatography—teicoplanin guard column MSMS parameters—generic peptide ionisation and doubly charged ion fragmentation T6 doubly charged ion m/z 575.4 and internal std m/z 579.4 Product ions (m/z): 937.4, 823.4, 694.4—internal std (m/z): 945.4, 831.4, 702.4 (150 ms/MRM) Results

Non-standard residues stand in square brackets, D forms with d. No end group written: not given here. K∗ = stable isotope labelled lysine

“LVNEVTEFAK*T (LVNEVTEFA[K∗]T) [peptide 8]”: the “signal for LVNEVTEFAK after tryptic digestion” value (3 different MRMs, LVNEVTEFAK* as internal standard) is reported as “no signal”. In addition, the “LVNEVTEFAK* signal after tryptic digestion” value (LVNEVTEFAK* as internal standard) was “increased by the expected amount”. The “Internal standard area Ratio (IS + peptide 8 / Mean (Blank, 1-6))” value runs as follows: (T6 694) 1.87; (T6 823) 1.80; (T6 937) 1.91. The “IS Peak Area (counts)” value runs as follows: (T6 694 transition) 238000 counts; (T6 823 transition) 83000 counts; (T6 937 transition) 253000 counts. The “Analyte Peak Area (counts)” value reads like this: (analyte T6 694 (m/z 575.4/694.4)) 149 counts; (analyte T6 823 (m/z 575.4/823.4)) 62 counts; (analyte T6 937 (m/z 575.4/937.4)) 147 counts. Also, the “Area Ratio” value is 0.00062 (analyte T6 694 / internal std LVNEVTEFAK*), 0.00074 (analyte T6 823 / internal std LVNEVTEFAK*) and 0.00058 (analyte T6 937 / internal std LVNEVTEFAK*). In addition, the “recovery after tryptic digestion” value (within the limits of the experiment) was “full recovery”.
